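Assay format: 96-well plates, 48-hour exposure. At the GI50, growth is halved.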 The source made the active and inactive calls. Cut-off read from the data, not from the text of the source: active = GI50 up to about 1.1 µM and inactive = higher.
How the values were obtained:
Test in all cases: NCI anticancer screen, dose series, 48 h
HCT-116 = tested on: HCT-116
MDA-N = tested on: MDA-N
M14 = tested on: M14
SK-MEL-2 = tested on: SK-MEL-2
NCI-H460 = tested on: NCI-H460
CAKI-1 = tested on: CAKI-1
BT-549 = tested on: BT-549
SW-620 = tested on: SW-620
SK-OV-3 = tested on: SK-OV-3
PC-3 = tested on: PC-3
SK-MEL-5 = tested on: SK-MEL-5
SF-295 = tested on: SF-295
CCRF-CEM = tested on: CCRF-CEM
A549 = tested on: A549
NCI/ADR-RES = tested on: NCI/ADR-RES
HOP-92 = tested on: HOP-92
SR = tested on: SR
IGROV-1 = tested on: IGROV-1
SNB-75 = tested on: SNB-75

Structure (SMILES) | GI50 (HCT-116) | GI50 (MDA-N) | GI50 (M14) | GI50 (SK-MEL-2) | GI50 (NCI-H460) | GI50 (CAKI-1) | GI50 (BT-549) | GI50 (SW-620) | GI50 (SK-OV-3) | GI50 (PC-3) | GI50 (SK-MEL-5) | GI50 (SF-295) | GI50 (CCRF-CEM) | GI50 (A549) | GI50 (NCI/ADR-RES) | GI50 (HOP-92) | GI50 (SR) | GI50 (IGROV-1) | GI50 (SNB-75)
OC(CC(CC(O)(C(F)(F)Cl)C(F)(F)Cl)=NNc1ccccc1)(C(F)(F)Cl)C(F)(F)Cl | 1.98 µM (inactive) | 2.87 µM (inactive) | 4.26 µM (inactive) | 1.4 µM (inactive) | 3.04 µM (inactive) | 2.9 µM (inactive) | 1.94 µM (inactive) | 3.27 µM (inactive) | 4.04 µM (inactive) | 1.35 µM (inactive) | 1.71 µM (inactive) | 2.91 µM (inactive) | > 10 µM (inactive) | 3.41 µM (inactive) | 4.05 µM (inactive) | 2.01 µM (inactive) | 5.79 µM (inactive) | 5.62 µM (inactive) | 2.71 µM (inactive)
COCN1C(=O)[C@@H]2CCCN2C(=O)c2ccc(Cl)cc21 | > 100 µM (inactive) | > 100 µM (inactive) | > 100 µM (inactive) | > 100 µM (inactive) | > 100 µM (inactive) | > 100 µM (inactive) | > 100 µM (inactive) | > 100 µM (inactive) | > 100 µM (inactive) | > 100 µM (inactive) |  | > 100 µM (inactive) |  | > 100 µM (inactive) | > 100 µM (inactive) | > 100 µM (inactive) | > 100 µM (inactive) | > 100 µM (inactive) | > 100 µM (inactive)
COc1cc(OC)cc(OCc2ccc3nc(-c4ccccc4)c(Cl)nc3c2)c1 | 29 µM (inactive) | 44.1 µM (inactive) | > 100 µM (inactive) | 35.6 µM (inactive) | 37 µM (inactive) | 11.5 µM (inactive) | 31.3 µM (inactive) | 59.8 µM (inactive) |  | 37.6 µM (inactive) | 14.5 µM (inactive) | 22.5 µM (inactive) | > 100 µM (inactive) | 49.9 µM (inactive) | 25 µM (inactive) | 18.8 µM (inactive) | 19.7 µM (inactive) | 21.1 µM (inactive) | 15.8 µM (inactive)
Brc1c(C#CCC2CCCCC2)ccc(C#CCC2CCCCC2)c1Br |  | > 100 µM (inactive) | > 100 µM (inactive) | > 100 µM (inactive) | > 100 µM (inactive) | > 100 µM (inactive) | > 100 µM (inactive) | > 100 µM (inactive) |  | > 100 µM (inactive) | > 100 µM (inactive) | > 100 µM (inactive) | > 100 µM (inactive) | > 100 µM (inactive) | > 100 µM (inactive) | > 100 µM (inactive) | > 100 µM (inactive) | > 100 µM (inactive) | > 100 µM (inactive)
NCCNS(=O)(=O)c1ccc(N)cc1 | > 100 µM (inactive) | > 100 µM (inactive) | > 100 µM (inactive) | > 100 µM (inactive) |  | > 100 µM (inactive) | > 100 µM (inactive) | > 100 µM (inactive) | > 100 µM (inactive) | > 100 µM (inactive) | > 100 µM (inactive) | > 100 µM (inactive) | 32.8 µM (inactive) | > 100 µM (inactive) | > 100 µM (inactive) | > 100 µM (inactive) | 41.4 µM (inactive) | > 100 µM (inactive) | > 100 µM (inactive)
O=C(Oc1ccccc1)N1c2ccccc2[C@@]23O[C@]24CCC[C@H]3C#C/C=C\C#C[C@H]14 | 11.4 µM (inactive) | 13.6 µM (inactive) | 15.2 µM (inactive) | 11.8 µM (inactive) | < 0.01 µM (active) | 13 µM (inactive) | 12.9 µM (inactive) | 11.4 µM (inactive) | 0.173 µM (active) | 11.6 µM (inactive) |  | 17.1 µM (inactive) | 15.7 µM (inactive) | 0.0942 µM (active) | 14.4 µM (inactive) | 12.3 µM (inactive) | 10.4 µM (inactive) | 12.4 µM (inactive) | 8.85 µM (inactive)
Fc1ccc(/C=C2\COCC3=C2NC(=S)NC3c2ccc(F)cc2)cc1 (configuration not stated) | 17.3 µM (inactive) | 17.6 µM (inactive) | 16.4 µM (inactive) | 15 µM (inactive) | 19.8 µM (inactive) | 31.1 µM (inactive) | 19 µM (inactive) | 19.7 µM (inactive) | 31 µM (inactive) | 17.3 µM (inactive) | 19.4 µM (inactive) | 18.7 µM (inactive) | 19 µM (inactive) |  | 19.1 µM (inactive) | 18.7 µM (inactive) | 19 µM (inactive) | 24.9 µM (inactive) | 22.2 µM (inactive)
CN(C)c1ccc(C(C#N)N2CCCN(C(C#N)c3ccc(N(C)C)cc3)C2c2ccc(N(C)C)cc2)cc1 (configuration not stated) | > 100 µM (inactive) | > 100 µM (inactive) | > 100 µM (inactive) | > 100 µM (inactive) |  | > 100 µM (inactive) | > 100 µM (inactive) | > 100 µM (inactive) | > 100 µM (inactive) | > 100 µM (inactive) | > 100 µM (inactive) | > 100 µM (inactive) | > 100 µM (inactive) | > 100 µM (inactive) | > 100 µM (inactive) | > 100 µM (inactive) | > 100 µM (inactive) | > 100 µM (inactive) | > 100 µM (inactive)
COc1cc2c(cc1Cc1c(F)cccc1Cl)nc(-c1c(F)cccc1Cl)n2Cc1c(F)cccc1Cl | 20 µM (inactive) | 20.6 µM (inactive) | > 100 µM (inactive) | 12.6 µM (inactive) | 22.5 µM (inactive) | 6.07 µM (inactive) | 28.8 µM (inactive) |  | 20.8 µM (inactive) | 10.7 µM (inactive) | 13.5 µM (inactive) | 14 µM (inactive) | 2.1 µM (inactive) | 20.7 µM (inactive) | 38.7 µM (inactive) | 2.64 µM (inactive) | 26.7 µM (inactive) | 32.4 µM (inactive) | 24.7 µM (inactive)
Cc1ccc(S(=O)(=O)NNCNC(=O)c2ccccc2)cc1 | > 100 µM (inactive) | 33.9 µM (inactive) | > 100 µM (inactive) | > 100 µM (inactive) |  | > 100 µM (inactive) | > 100 µM (inactive) | 94.8 µM (inactive) | > 100 µM (inactive) | > 100 µM (inactive) | > 100 µM (inactive) | > 100 µM (inactive) | 17.6 µM (inactive) | > 100 µM (inactive) | 54.6 µM (inactive) | > 100 µM (inactive) | 2.29 µM (inactive) | > 100 µM (inactive) | > 100 µM (inactive)
O=c1cc(-c2ccccc2)[nH]c2ccc(N3CCCCC3)cc12 | < 0.0184 µM (active) | < 0.01 µM (active) | 0.0166 µM (active) | 0.0476 µM (active) | 0.0306 µM (active) | < 0.0221 µM (active) | 40.9 µM (inactive) | 0.0468 µM (active) | 0.0368 µM (active) | 0.0297 µM (active) | < 0.0153 µM (active) | < 0.0117 µM (active) | < 0.0161 µM (active) | 0.0488 µM (active) | 0.0204 µM (active) | < 0.01 µM (active) | 0.0172 µM (active) | 0.0506 µM (active) | 
CO/C(N)=C(C#N)/N=C/c1ccc2ccccc2c1 | 76.2 µM (inactive) | 8.41 µM (inactive) |  | 31.1 µM (inactive) |  | 39.1 µM (inactive) | 18.5 µM (inactive) | > 100 µM (inactive) | 82.6 µM (inactive) | 19.9 µM (inactive) | 13 µM (inactive) | 33.2 µM (inactive) | 24.8 µM (inactive) | 77.6 µM (inactive) | 13 µM (inactive) | 34.5 µM (inactive) | 27.6 µM (inactive) | 43.6 µM (inactive) | 78.9 µM (inactive)
O=[N+]([O-])/C(C(Cl)=C(Cl)Cl)=C(/Sc1ccccc1)N1CCOCC1 | 1.67 µM (inactive) | 3.65 µM (inactive) | 3 µM (inactive) | 5.14 µM (inactive) | 5.05 µM (inactive) | 6.27 µM (inactive) | 4.76 µM (inactive) | 2.26 µM (inactive) | 34.8 µM (inactive) | 6.01 µM (inactive) | 3 µM (inactive) | 19.5 µM (inactive) | 1.83 µM (inactive) | 18.6 µM (inactive) | 6.28 µM (inactive) | 2.34 µM (inactive) | 2.12 µM (inactive) | 3.13 µM (inactive) | 
OCC(CCc1c[nH]c2ccccc12)c1c[nH]c2ccccc12 (configuration not stated) | 15.5 µM (inactive) | 16.7 µM (inactive) | 15.3 µM (inactive) | 16.5 µM (inactive) | 14.6 µM (inactive) | 26.1 µM (inactive) | 16.5 µM (inactive) | 15.7 µM (inactive) | 30.5 µM (inactive) | 17.2 µM (inactive) | 16.8 µM (inactive) | 16.7 µM (inactive) |  | 17.6 µM (inactive) | 18 µM (inactive) | 15.2 µM (inactive) | 12.1 µM (inactive) | 12.7 µM (inactive) | 19.7 µM (inactive)
CC(=O)OCC1OC(n2c(-c3ccc(C)cc3)cc(-c3ccccc3)c(C#N)c2=S)C(OC(C)=O)C(OC(C)=O)C1OC(C)=O (configuration not stated) | > 100 µM (inactive) | > 100 µM (inactive) | > 100 µM (inactive) |  | > 100 µM (inactive) | > 100 µM (inactive) | > 100 µM (inactive) | > 100 µM (inactive) | > 100 µM (inactive) | > 100 µM (inactive) | 37.8 µM (inactive) | > 100 µM (inactive) |  | > 100 µM (inactive) | > 100 µM (inactive) | > 100 µM (inactive) | > 100 µM (inactive) | > 100 µM (inactive) | 32.7 µM (inactive)
